Test results from PubChem BioAssay (NCI).
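48-hour exposure; five concentrations; linearly interpolated endpoints. At the GI50, growth is halved. TGI: concentration producing complete growth inhibition.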

Key:
Assay in all cases: inhibition of tumour cell growth, NCI panel, 48 h
TK-10 renal = system: TK-10 renal
OVCAR-5 ovarian = system: OVCAR-5 ovarian
UACC-257 melanoma = system: UACC-257 melanoma
NCI-H522 lung = system: NCI-H522 lung
SW-620 colon = system: SW-620 colon
UACC-62 melanoma = system: UACC-62 melanoma
MOLT-4 leukemia = system: MOLT-4 leukemia
NCI-H226 lung = system: NCI-H226 lung
KM12 colon = system: KM12 colon
U251 CNS = system: U251 CNS
COLO 205 colon = system: COLO 205 colon
MDA-MB-435 = system: MDA-MB-435
OVCAR-4 ovarian = system: OVCAR-4 ovarian
SF-268 CNS = system: SF-268 CNS
ACHN renal = system: ACHN renal
SR leukemia = system: SR leukemia
CCRF-CEM leukemia = system: CCRF-CEM leukemia
LOX IMVI melanoma = system: LOX IMVI melanoma
PC-3 prostate = system: PC-3 prostate
T-47D breast = system: T-47D breast
SK-MEL-28 melanoma = system: SK-MEL-28 melanoma
SF-539 CNS = system: SF-539 CNS
NCI-H460 lung = system: NCI-H460 lung
UO-31 renal = system: UO-31 renal
SF-295 CNS = system: SF-295 CNS
M14 melanoma = system: M14 melanoma
K-562 leukemia = system: K-562 leukemia
HOP-62 NSCLC = system: HOP-62 NSCLC
HS 578T breast = system: HS 578T breast
SK-MEL-5 melanoma = system: SK-MEL-5 melanoma
NCI-H23 lung = system: NCI-H23 lung
SK-MEL-2 melanoma = system: SK-MEL-2 melanoma
MCF7 breast = system: MCF7 breast
CAKI-1 renal = system: CAKI-1 renal
HOP-92 NSCLC = system: HOP-92 NSCLC
SN12C renal = system: SN12C renal
HT29 colon = system: HT29 colon
OVCAR-8 ovarian = system: OVCAR-8 ovarian
SNB-19 CNS = system: SNB-19 CNS
HCT-15 colon = system: HCT-15 colon
A549 NSCLC = system: A549 NSCLC
EKVX NSCLC = system: EKVX NSCLC
NCI/ADR-RES ovarian = system: NCI/ADR-RES ovarian
IGROV1 ovarian = system: IGROV1 ovarian
MALME-3M melanoma = system: MALME-3M melanoma
DU-145 prostate = system: DU-145 prostate
MDA-MB-231 breast = system: MDA-MB-231 breast
OVCAR-3 ovarian = system: OVCAR-3 ovarian
HL-60(TB) leukemia = system: HL-60(TB) leukemia
SNB-75 CNS = system: SNB-75 CNS
HCT-116 colon = system: HCT-116 colon
BT-549 breast = system: BT-549 breast
786-0 renal = system: 786-0 renal
RXF 393 renal = system: RXF 393 renal
SK-OV-3 ovarian = system: SK-OV-3 ovarian
HCC-2998 colon = system: HCC-2998 colon
A498 renal = system: A498 renal
RPMI-8226 leukemia = system: RPMI-8226 leukemia

Compound COc1cccc(CCC2CCCN(c3cc(C)nc(N)n3)C2)c1 (stereo unspecified) has a GI50 (TK-10 renal) of 794 nM, a TGI (TK-10 renal) of 14800 nM and a GI50 (OVCAR-5 ovarian) of 1540 nM. It also gave a TGI (OVCAR-5 ovarian) of 17700 nM, a GI50 (UACC-257 melanoma) of 1370 nM and a TGI (UACC-257 melanoma) of 17700 nM. The GI50 (NCI-H522 lung) was 289 nM, the TGI (NCI-H522 lung) was 3160 nM and the GI50 (SW-620 colon) was 363 nM. The TGI (SW-620 colon) was 13700 nM, the GI50 (UACC-62 melanoma) was 426 nM and the TGI (UACC-62 melanoma) was 5490 nM. The GI50 (MOLT-4 leukemia) was 496 nM, the TGI (MOLT-4 leukemia) was 13200 nM and the GI50 (NCI-H226 lung) was 1910 nM. It also gave a TGI (NCI-H226 lung) of 19300 nM, a GI50 (KM12 colon) of 315 nM and a TGI (KM12 colon) of 12400 nM. It also gave a GI50 (U251 CNS) of 413 nM, a TGI (U251 CNS) of 11400 nM and a GI50 (COLO 205 colon) of 313 nM. For the same compound, the TGI (COLO 205 colon) was 1060 nM, the GI50 (MDA-MB-435) was 153 nM and the TGI (MDA-MB-435) was 404 nM. The GI50 (OVCAR-4 ovarian) was 692 nM, the TGI (OVCAR-4 ovarian) was 19300 nM and the GI50 (SF-268 CNS) was 643 nM. The TGI (SF-268 CNS) was 12500 nM, the GI50 (ACHN renal) was 625 nM and the TGI (ACHN renal) was 14100 nM. For the same compound, the GI50 (SR leukemia) was 236 nM, the TGI (SR leukemia) was 4090 nM and the GI50 (CCRF-CEM leukemia) was 340 nM. For the same compound, the TGI (CCRF-CEM leukemia) was 22200 nM, the GI50 (LOX IMVI melanoma) was 609 nM and the TGI (LOX IMVI melanoma) was 7650 nM. It also gave a GI50 (PC-3 prostate) of 379 nM, a TGI (PC-3 prostate) of 14100 nM and a GI50 (T-47D breast) of 238 nM. It also gave a TGI (T-47D breast) of 8260 nM, a GI50 (SK-MEL-28 melanoma) of 1120 nM and a TGI (SK-MEL-28 melanoma) of 16000 nM. The GI50 (SF-539 CNS) was 277 nM, the TGI (SF-539 CNS) was 1150 nM and the GI50 (NCI-H460 lung) was 380 nM. It also gave a TGI (NCI-H460 lung) of 11600 nM, a GI50 (UO-31 renal) of 576 nM and a TGI (UO-31 renal) of 11900 nM. For the same compound, the GI50 (SF-295 CNS) was 362 nM, the TGI (SF-295 CNS) was 10600 nM and the GI50 (M14 melanoma) was 302 nM. It also gave a TGI (M14 melanoma) of 2600 nM, a GI50 (K-562 leukemia) of 259 nM and a TGI (K-562 leukemia) of 10600 nM. The GI50 (HOP-62 NSCLC) was 434 nM, the TGI (HOP-62 NSCLC) was 6430 nM and the GI50 (HS 578T breast) was 418 nM. It also gave a TGI (HS 578T breast) of 16700 nM, a GI50 (SK-MEL-5 melanoma) of 333 nM and a TGI (SK-MEL-5 melanoma) of 1320 nM. It also gave a GI50 (NCI-H23 lung) of 614 nM, a TGI (NCI-H23 lung) of 14000 nM and a GI50 (SK-MEL-2 melanoma) of 435 nM. For the same compound, the TGI (SK-MEL-2 melanoma) was 8230 nM, the GI50 (MCF7 breast) was 292 nM and the TGI (MCF7 breast) was 11900 nM. The GI50 (CAKI-1 renal) was 385 nM, the TGI (CAKI-1 renal) was 13400 nM and the GI50 (HOP-92 NSCLC) was 519 nM. It also gave a TGI (HOP-92 NSCLC) of 11600 nM, a GI50 (SN12C renal) of 635 nM and a TGI (SN12C renal) of 11500 nM. The GI50 (HT29 colon) was 280 nM, the TGI (HT29 colon) was 1490 nM and the GI50 (OVCAR-8 ovarian) was 531 nM. The TGI (OVCAR-8 ovarian) was 8930 nM, the GI50 (SNB-19 CNS) was 521 nM and the TGI (SNB-19 CNS) was 16000 nM. The GI50 (HCT-15 colon) was 418 nM, the TGI (HCT-15 colon) was 12300 nM and the GI50 (A549 NSCLC) was 722 nM. The TGI (A549 NSCLC) was 15200 nM, the GI50 (EKVX NSCLC) was 558 nM and the TGI (EKVX NSCLC) was 27700 nM. It also gave a GI50 (NCI/ADR-RES ovarian) of 394 nM, a TGI (NCI/ADR-RES ovarian) of 5900 nM and a GI50 (IGROV1 ovarian) of 666 nM. The TGI (IGROV1 ovarian) was 12800 nM, the GI50 (MALME-3M melanoma) was 527 nM and the TGI (MALME-3M melanoma) was 14900 nM. It also gave a GI50 (DU-145 prostate) of 326 nM, a TGI (DU-145 prostate) of 11200 nM and a GI50 (MDA-MB-231 breast) of 1200 nM. It also gave a TGI (MDA-MB-231 breast) of 11500 nM, a GI50 (OVCAR-3 ovarian) of 242 nM and a TGI (OVCAR-3 ovarian) of 675 nM. For the same compound, the GI50 (HL-60(TB) leukemia) was 251 nM, the TGI (HL-60(TB) leukemia) was 686 nM and the GI50 (SNB-75 CNS) was 194 nM. The TGI (SNB-75 CNS) was 3460 nM, the GI50 (HCT-116 colon) was 484 nM and the TGI (HCT-116 colon) was 11000 nM. The GI50 (BT-549 breast) was 690 nM, the TGI (BT-549 breast) was 13500 nM and the GI50 (786-0 renal) was 526 nM. For the same compound, the TGI (786-0 renal) was 11900 nM, the GI50 (RXF 393 renal) was 368 nM and the TGI (RXF 393 renal) was 5870 nM. It also gave a GI50 (SK-OV-3 ovarian) of 414 nM, a TGI (SK-OV-3 ovarian) of 11700 nM and a GI50 (HCC-2998 colon) of 1540 nM. For the same compound, the TGI (HCC-2998 colon) was 7520 nM, the GI50 (A498 renal) was 288 nM and the TGI (A498 renal) was 2510 nM. For the same compound, the GI50 (RPMI-8226 leukemia) was 348 nM and the TGI (RPMI-8226 leukemia) was 3130 nM.
